Reference: US20170202939A1, “PERSONALIZED CANCER VACCINES AND METHODS THEREFOR” (Washington University, priority 2014, published 2017)
No end group written: not given here.

Target: T1, soluble HLA-A*02:01 from TMC expressing A375 melanoma cells (Homo sapiens, UniProt P04439, D140Y/D185E/D98H/E176V/E277Q/G131W/G231S/I119V/I121R/I166T/I218V/L300P/L318F/N151K/N90K/P208A/P217A/Q86G/Q94H/R138H/R169H/T345S)
T1 construct: TMC expressing A375 melanoma cells were transfected with soluble HLA-A*02:01(sHLA-A*02:01); expressed in transfected cells; host or cells: A375 melanoma cells expressing the MEL218 AAS tandem mini-gene construct
Assay: proteomic analysis (RP-HPLC, LC/MS) of peptides eluted from soluble HLA-A*02:01
Settings: A375 melanoma cells expressing MEL218 TMC
Experimental: To validate neoantigen processing and presentation, proteomic analysis was performed on peptides eluted from soluble HLA-A*02:01 molecules isolated from melanoma cells expressing a TMC encoding AAS candidates from patient MEL218 tumor (Sercarz, E. E., et al., Annu. Rev. Imunol., 11, 729-766, 1993; Assarsson, E., et al., J. Immunol., 178, 7890-7901, 2007). TMC expressing A375 melanoma cells were transfected with soluble HLA-A*02:01(sHLA-A*02:01) and single cell sorted for a high (>1000 ng/ml in static culture) sHLAA*02:01 producing clone. The sHLA-A*02:01 construct includes a C-terminal VLDLr epitope purification tag ([…] ID NO. 32) that is recognized by the anti-VLDLr mAb (ATCC CRL-2197). This antibody was also used for quantification of sHLA production as the capture antibody in a sandwich ELISA, with an antibody directed against β2-microglobulin (Dako Cytomation) as the detector antibody. Cells were grown in roller bottles and sHLA/peptide complexes were purified from supernatants by affinity chromatography with the anti-VLDLr antibody (Kaabinejadian, S., et al., P.L.o.S. One, 8, e66298, 2013). Eluate fractions containing sHLA/peptide complexes were brought to a final acetic acid concentration of 10%, pooled, and heated to 78° C. in a water bath. Peptides were purified through a 3 kDa molecular weight cutoff cellulose membrane (EMD Millipore) and lyophilized.
Synthetic peptides corresponding to the mutant sequences were resuspended in 10% acetic acid in water at 1 μM, and fractionated by RP-HPLC with an acetonitrile gradient in 10 mM ammonium formate at pH 10. Peptide-containing fractions were dried and resuspended in 25 ul of 10% acetic acid and subjected to nanoscale RP-HPLC at pH 2.5 utilizing an Eksigent nanoLC coupled to a TripleTOF 5600 (AB Sciex) quadrupole time-of-flight mass spectrometer (LC/MS). Information dependent acquisition (IDA) was used to obtain MS and MS/MS fragment spectra for peptide ions. The sequence of each peptide was determined by observed mass and fragment ions, and the 1st dimension fraction number and LC/MS retention times were recorded.
Next, peptides purified from TMC expressing A375 melanoma cells were resuspended in 10% acetic acid and HPLC fractionated under the same conditions and gradient method. Reverse phase HPLC was used to reduce the complexity and determine the elution profile of the pool of soluble HLA-A*02:01 restricted peptides presented by melanoma cells, as well as, the synthetic AAS peptide mixture. FIGS. 40A and 40E illustrate RP-HPLC fractionation of HLA-A*02:01 peptides eluted from the AAS-TMC expressing melanoma cell line (solid trace) and the synthetic peptide mixture containing MEL218 neoantigen candidates (dashed trace), with fraction 50 (FIG. 40A) and fraction 44 (FIG. 40E) indicated. […]

| Sequence | HLA-A*02:01 presentation by LC/MS of eluted peptides |
| --- | --- |
| MLGEQLFPL | demonstrated the HLA-A*02:01 presentation |
| IILVAVPHV | confirmed HLA-A*02:01 presentation |
